We go through 1 compound from publication PMC4091635 (Bioorganic & medicinal chemistry, 2014).

The test system of the experiment is transformed PSC (human pancreatic stellate cells). Briefly: AlamarBlue Cell Viability Assay, PSC proliferation. It is filed as cell-based. The following applies: mean of at least three independent experiments, NE: No effect. A general note: Alamar Blue is a resazurin reagent that responds to reducing activity.

For the compound `COc1cc(OC)c2c(=O)cc(-c3ccc(O)cc3)oc2c1` [Compound 6, 2-(4-Hydroxy-phenyl)-5,7-dimethoxy-chromen-4-one], the “Inhibitory Effect (%) 20 μM” value is listed as “no significant antiproliferative effect”.
